This passage reports relative viability results from the supplement of paper PMC10307832.

What all share (assay): relative viability (nuclei count vs DMSO), 5 days (fraction); higher = more cells survive
Compound in assay [1]: C1CNCCC1C2=CC(=NN2)C3=CC=NC=C3 + CC(=O)Nc1cccc(-n2c(=O)n(C3CC3)c(=O)c3c(Nc4ccc(I)cc4F)n(C)c(=O)c(C)c32)c1 [Trametinib] (partner 0.02 µM)
Summed up: (§1)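 Lung cancer cell lines were pin-tool dosed in 1536-well plates on the day after seeding, with either a lone drug or a fixed anchor-drug dose plus five library-drug doses (not always all listed) in √10 steps. Nuclei were counted on 4× images after 5 days. Relative viability is the ratio of treated-well to vehicle-well nuclei counts, with each value a median of duplicate plates.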

Compound in assay [2]: C1CNCCC1C2=CC(=NN2)C3=CC=NC=C3 + COc1cc2c(Oc3ccc(NC(=O)C4(C(=O)Nc5ccc(F)cc5)CC4)cc3F)ccnc2cc1OCCCN1CCOCC1 [Foretinib] (partner 0.25 µM)
Summed up: as §1

Compound in assay [3]: O[C@H]1CC[C@H](Nc2ncc3nc(Nc4c(F)cc(F)cc4F)n([C@H]4CCOC4)c3n2)CC1 [Tanzisertib] + C[C@]1(O)C[C@@H](c2nc(-c3ccc4ccc(-c5ccccc5)nc4c3)c3c(N)nccn32)C1 [Linsitinib] (partner 1 µM)
Summed up: as §1

Compound in assay [4]: C1CNCCC1C2=CC(=NN2)C3=CC=NC=C3 + O=C(CCCCCCC(=O)Nc1ccccc1)NO [Vorinostat] (partner 1 µM)
Summed up: as §1

As to UMC-11, the relative viability in assay [1] (first compound 0.08 µM) was determined as 0.554; in assay [1] (first compound 0.8 µM), 0.776; in assay [1] (first compound 2.53 µM), 0.796; in assay [1] (first compound 8 µM), 0.768; in assay [2] (first compound 0.08 µM) it was 1; in assay [2] (first compound 0.8 µM), 1.17. In addition, the relative viability stood at 1.09 in assay [2] (first compound 2.53 µM); 1.09 in assay [2] (first compound 8 µM); 1 in assay [3] (first compound 0.08 µM); 0.954 in assay [3] (first compound 0.253 µM); 1.03 in assay [3] (first compound 0.8 µM); 0.988 in assay [3] (first compound 2.53 µM). The relative viability in assay [3] (first compound 8 µM) worked out at 1.06; in assay [4] (first compound 0.08 µM), 0.394; in assay [4] (first compound 0.8 µM), 0.419; in assay [4] (first compound 2.53 µM), 0.392; in assay [4] (first compound 8 µM), 0.565.
